The target in data set [1] is T1, HIV Reverse Transcriptase (Type B, 66 kDa subunit) (Human immunodeficiency virus type 1 group M subtype B, UniProt P04585).
T1 construct: purified HIV Reverse Transcriptase (Type B, 66 kDa subunit)
In words: HIV Reverse Transcriptase inhibition assays (RNA-directed DNA polymerization, PicoGreen fluorescence). Format: biochemical. The conditions noted are these: Table 1; template (homopolymer or heteropolymer RNA) not stated; read-out: Ki, Inhibition of HIV Reverse Transcriptase by Nucleotide Mimics.

The next data set relates to CEM cells. In words: Cell uptake procedure (intracellular nucleotide levels by HPLC). In kind it is cell-based, Human. The conditions noted are these: 24 hour incubation, limit of detection about 5 pmol/10^6 cells. The procedure:
CEM cells were resuspended in RPMI at 1×10^7 cells/mL. The appropriate amount of each compound was added to well and then 0.5 ml of the cells was aliquoted into the appropriate number of wells of a 24-well plate and incubated the cells at 37° C. Cells were harvested after 24 hours of incubation. To harvest cells they were transferred to a microfuge tube and spun for one minute at high speed. The samples were washed in PBS containing 1 mg/ml BSA and re-centrifuged. The PBS was then aspirated and 200 μL of ice-cold 60% methanol was added to extract the nucleotides. The extracts were incubated overnight at −20° C. The next day the samples were spun at high speed in a microfuge for 20 minutes and the supernatant transferred to clean tubes and dried in the speed vac. After drying the samples were resuspended in 50 μl, filtered, and the samples then directly injected onto the HPLC. The nucleotides were analyzed using reverse phase HPLC with ion-pairing agents for separation of the nucleotides. The procedure was adapted from the following paper: Furman, et al., Proc. Natl. Acad. Sci. USA 1986, 83, 8333-8337.
The limit of detection was estimated to be 5 pmol/10^6 cells.

By Ki is commonly meant the dissociation constant of the complex between target and ligand, obtained from inhibition or displacement. Take `[BH3-][P+](O)(OCC1OC(n2cc(C)c(=O)[nH]c2=O)CC1N=[N+]=[N-])OP(=O)(O)C(F)(F)P(=O)(O)O` (single isomer, unassigned) [Compound 27-isomer 1, 3′-Azido-3′-deoxythymidine 5′-α-P-borano-β,γ-(difluoromethylene)triphosphate]: in data set [1], the Ki turned out to be 8 nM. Also, the “Intracellular levels of 27” value was “BLD” in the data set with CEM cells (incubation concentration 25 μM), 5.6 pmol/10^6 cells in the data set with CEM cells (incubation concentration 50 μM) and 10.6 pmol/10^6 cells in the data set on CEM cells (incubation concentration 100 μM).

The record behind these values is patent US20040059104A1, “Nucleotide mimics and their prodrugs” (priority 2002, published 2004).
